In the supplement of paper PMC10307832:

Experiments:
Assay in all cases: relative viability (nuclei count vs DMSO), 5 days (fraction); higher = more cells survive
Crenolanib + AZD7762 = compound: CC1(COc2ccc3c(c2)ncn3-c2ccc3cccc(N4CCC(N)CC4)c3n2)COC1 [Crenolanib] + NC(=O)Nc1cc(-c2cccc(F)c2)sc1C(=O)N[C@H]1CCCNC1 [AZD7762] (partner 0.2 µM)
In short: (§1)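 Dosing by pin tool came one day after lung cancer cell lines were seeded in 1536-well plates, using either one drug or a fixed anchor-drug dose plus five library-drug doses (not always all listed) in √10 steps. After 5 days, nuclei were counted on 4× images. Relative viability is treated-well nuclei count divided by vehicle-well nuclei count, and values are medians of duplicate plates.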

Tivantinib + Palbociclib = compound: O=C1NC(=O)[C@@H](c2cn3c4c(cccc24)CCC3)[C@@H]1c1c[nH]c2ccccc12 [Tivantinib] + CC(=O)c1c(C)c2cnc(Nc3ccc(N4CCNCC4)cn3)nc2n(C2CCCC2)c1=O [Palbociclib] (partner 0.5 µM)
In short: as §1

Crenolanib + Palbociclib = compound: CC1(COc2ccc3c(c2)ncn3-c2ccc3cccc(N4CCC(N)CC4)c3n2)COC1 [Crenolanib] + CC(=O)c1c(C)c2cnc(Nc3ccc(N4CCNCC4)cn3)nc2n(C2CCCC2)c1=O [Palbociclib] (partner 0.5 µM)
In short: as §1

Crenolanib + Luminespib = compound: CC1(COc2ccc3c(c2)ncn3-c2ccc3cccc(N4CCC(N)CC4)c3n2)COC1 [Crenolanib] + CCNC(=O)c1noc(-c2cc(C(C)C)c(O)cc2O)c1-c1ccc(CN2CCOCC2)cc1 [Luminespib] (partner 0.01 µM)
In short: as §1

Cell Line	relative viability (Crenolanib + AZD7762; first compound 0.01 µM)	relative viability (Crenolanib + AZD7762; first compound 0.03162 µM)	relative viability (Crenolanib + AZD7762; first compound 0.1 µM)	relative viability (Crenolanib + AZD7762; first compound 0.3162 µM)	relative viability (Crenolanib + AZD7762; first compound 1 µM)	relative viability (Tivantinib + Palbociclib; first compound 0.01 µM)	relative viability (Tivantinib + Palbociclib; first compound 0.03162 µM)	relative viability (Tivantinib + Palbociclib; first compound 0.1 µM)	relative viability (Tivantinib + Palbociclib; first compound 0.3162 µM)	relative viability (Crenolanib + Palbociclib; first compound 0.01 µM)	relative viability (Crenolanib + Palbociclib; first compound 0.03162 µM)	relative viability (Crenolanib + Palbociclib; first compound 0.1 µM)	relative viability (Crenolanib + Palbociclib; first compound 0.3162 µM)	relative viability (Crenolanib + Palbociclib; first compound 1 µM)	relative viability (Crenolanib + Luminespib; first compound 0.01 µM)	relative viability (Crenolanib + Luminespib; first compound 0.03162 µM)	relative viability (Crenolanib + Luminespib; first compound 0.1 µM)	relative viability (Crenolanib + Luminespib; first compound 0.3162 µM)	relative viability (Crenolanib + Luminespib; first compound 1 µM)
NCI-H522	1.03	0.853	0.773	0.88	0.836	1.06	0.737	1.03	0.812	1.15	1.06	0.963	0.881	0.971	1.01	0.993	1.15	1.17	1.21
LC-2-ad	0.892	0.898	0.777	0.908	0.821	0.46	0.442	0.515	0.456	0.476	0.466	0.505	0.541	0.442	1.07	0.929	0.955	0.963	0.756
NCI-H650	1.06	0.975	1.01	0.864	0.936	0.392	0.32	0.314	0.323	0.308	0.346	0.33	0.32	0.355	0.839	0.791	0.777	0.872	0.757
NCI-H2170	0.941	0.852	0.897	0.934	0.852	0.398	0.411	0.363	–	0.384	0.432	0.38	0.422	0.417	0.741	0.568	0.761	1.02	0.672
NCI-H2087	1.33	1.18	1.39	1.6	1.34	0.209	0.233	0.276	0.228	0.248	0.249	0.233	0.211	0.318	0.184	0.195	0.167	0.191	0.184
NCI-H838	0.883	0.977	0.886	0.924	0.901	0.245	0.212	0.188	0.207	0.244	0.232	0.21	0.232	0.205	0.353	0.235	0.29	0.301	0.373
NCI-H460	0.668	0.482	0.695	0.872	0.86	0.141	0.138	0.162	0.135	0.165	0.163	0.0988	0.15	0.145	0.0489	0.039	0.0453	0.0313	0.0348
LU99A	0.42	0.419	0.414	0.467	0.401	0.393	0.427	0.392	0.366	0.411	0.453	0.4	0.432	0.441	0.253	0.217	0.219	0.287	0.207
NCI-H322M	0.589	0.52	0.555	0.544	0.695	0.519	0.484	0.475	–	0.497	0.483	0.482	0.479	0.496	0.949	0.88	0.752	0.769	0.802
NCI-H727	0.702	0.445	0.546	0.671	0.587	0.619	0.528	0.714	–	0.72	0.676	0.678	0.646	0.699	0.353	0.376	0.264	0.428	0.376
NCI-H1793	0.549	0.794	0.538	0.366	0.645	0.334	0.237	0.325	0.241	0.295	0.321	0.302	0.36	0.43	0.197	0.249	0.165	0.16	0.186
NCI-H1755	0.423	0.468	0.362	0.529	0.484	0.437	0.44	0.432	0.459	0.466	0.443	0.46	0.454	0.473	0.416	0.656	0.667	0.43	0.397
HARA	0.399	0.391	0.588	0.248	0.509	0.259	0.249	0.246	0.193	0.298	0.219	0.272	0.242	0.294	0.643	0.734	0.626	0.875	0.828
201T	0.686	0.633	0.605	0.739	0.694	0.368	0.386	0.364	0.348	0.363	0.349	0.341	0.37	0.337	1.03	1.13	1.01	1.09	1.02
CAL-12T	0.778	0.553	0.641	0.634	0.799	0.409	0.345	0.347	0.185	0.423	0.344	0.411	0.457	0.41	0.338	0.398	0.272	0.363	0.579
NCI-H1792	0.701	0.686	0.656	0.834	0.754	0.685	0.62	0.627	0.618	0.68	0.683	0.648	0.687	0.677	0.563	0.424	0.367	0.394	0.429
NCI-H2085	–	0.983	0.997	0.972	1	0.472	0.483	0.463	0.468	–	0.46	0.475	0.512	0.485	0.478	0.43	0.407	0.481	0.421
